Assays:
[1] = molecular target: T1, Human Neuropeptide Y2 Receptor (Homo sapiens, UniProt P49146); assay: Radioligand binding competition assay (RLB)
T1 construct: purchased CHEMICON HTS066M
T1 sequence (P49146 1-381): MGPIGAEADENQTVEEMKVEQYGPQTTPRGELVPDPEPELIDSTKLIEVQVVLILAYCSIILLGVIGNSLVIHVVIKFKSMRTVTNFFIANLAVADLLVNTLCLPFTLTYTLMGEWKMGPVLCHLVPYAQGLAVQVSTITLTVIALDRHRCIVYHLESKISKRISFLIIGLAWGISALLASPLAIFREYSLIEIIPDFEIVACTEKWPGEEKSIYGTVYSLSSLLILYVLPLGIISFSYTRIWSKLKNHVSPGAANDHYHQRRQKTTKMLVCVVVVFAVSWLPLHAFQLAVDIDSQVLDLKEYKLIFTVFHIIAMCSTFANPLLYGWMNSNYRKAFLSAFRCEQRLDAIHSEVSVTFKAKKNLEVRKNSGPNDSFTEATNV
Method in brief: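 Displacement of radioligand is measured after 2 h at room temperature with receptor membranes in Mg2+/Ca2+ HEPES buffer, pH 7.4. Filter-bound radioactivity is counted and IC50 obtained from curve fitting.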

[2] = molecular target: T2, human NPY1 receptor (hY1R) (Homo sapiens, UniProt P25929); assay: HTRF cAMP Gi assay, hY1R; format: cell-based; settings: CHO-K1 cells
T2 construct: expressed in transfected cells; host or cells: CHO-K1
T2 sequence (P25929 1-384): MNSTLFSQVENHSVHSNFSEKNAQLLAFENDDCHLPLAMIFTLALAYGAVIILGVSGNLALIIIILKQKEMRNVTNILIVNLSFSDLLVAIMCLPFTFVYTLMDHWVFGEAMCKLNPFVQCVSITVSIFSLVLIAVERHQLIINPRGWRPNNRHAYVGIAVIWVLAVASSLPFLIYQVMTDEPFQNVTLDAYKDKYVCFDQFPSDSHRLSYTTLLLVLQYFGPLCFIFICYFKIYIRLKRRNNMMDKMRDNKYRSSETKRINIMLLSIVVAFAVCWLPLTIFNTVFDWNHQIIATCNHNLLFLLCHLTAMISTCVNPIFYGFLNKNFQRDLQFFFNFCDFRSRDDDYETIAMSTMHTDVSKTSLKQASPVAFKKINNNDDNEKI

[3] = molecular target: T3, human NPY4 receptor (hY4R) (Homo sapiens, UniProt P50391); assay: HTRF cAMP Gi assay, hY4R; format: cell-based; settings: CHO-K1 cells
T3 construct: expressed in transfected cells; host or cells: CHO-K1
T3 sequence (P50391 whole entry): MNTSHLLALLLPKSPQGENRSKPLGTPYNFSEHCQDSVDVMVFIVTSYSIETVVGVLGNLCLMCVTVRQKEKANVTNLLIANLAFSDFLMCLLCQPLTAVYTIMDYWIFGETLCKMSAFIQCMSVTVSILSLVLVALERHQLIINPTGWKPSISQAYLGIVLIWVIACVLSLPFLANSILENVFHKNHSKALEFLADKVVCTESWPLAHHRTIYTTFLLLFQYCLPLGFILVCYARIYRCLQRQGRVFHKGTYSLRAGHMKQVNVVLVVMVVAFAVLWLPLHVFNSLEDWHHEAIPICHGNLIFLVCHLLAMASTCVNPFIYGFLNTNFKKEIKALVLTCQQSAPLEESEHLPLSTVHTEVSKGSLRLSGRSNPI
Procedure: Briefly, the production of intracellular cAMP will generate a competition between unlabeled cAMP and exogenously added d2-cAMP for anti-cAMP antibodies conjugated to cryptate. CHO-K1 cells stably expressing the human NPY1, NPY2, NPY4 and NPY5 receptors were used with the cells brought to life from a frozen stock immediately before assay performance. 2000 cells per well were applied for all four NPY receptor subtype assays. A 384-well format was used applying a total volume of 20 μl using 5 μl cells, 2.5 μl peptide agonist, 2.5 μl forskolin and 5 μl of each of the fluorophores. […] Concentration-response evaluation of compounds was performed with 11 concentrations of agonist peptides (covering 3 decades). EC50 values were calculated by nonlinear regression using sigmoid concentration-response with variable slope.

Solubility determination = settings: for Sol6: pH 6; for Sol7: pH 7
Method in brief: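 Sample: TFA-salt peptide at 10 mg/ml target in 0.1 M Na diphosphate, pH 6.4 or 7.0, shaken 2 h RT, filtered, diluted to 1 mg/ml.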

[4] = molecular target: T1, Human Neuropeptide Y2 Receptor; assay: Activity (RLB binding) after incubation in solutions at different pH values
Procedure: The filtration RLB assay was carried out in 96-well plates in a final volume of 100 μl per well. Freeze-dried test peptides were dissolved in 100% dimethyl sulfoxide (DMSO) to stock solutions of 1 mM and serial dilutions were performed in assay buffer (50 mM HEPES, 5 mM MgCl2, 1 mM CaCl2, pH 7.4) containing 0.2% ovalbumin. […] Next, 80 μL membranes (HTS066M, ChemiSCREEN™ Human Neuropeptide Y2 Receptor Membrane Preparation, CHEMICON) were added to each well to give a final protein concentration of 0.5 μg/well. The plates were sealed and incubated at room temperature for 2 hours in a plate shaker set at 400 rpm. The incubation was stopped by vacuum filtration onto 0.5% polyethylene amine (PE) presoaked GF/C filters using a 96-well FilterMate™ harvester (Perkin Elmer) followed by four washes with 300 μl/well ice-cold wash buffer (50 mM HEPES, 500 mM NaCl, pH7.4). Filter plates were then dried for 60 min at room temperature and the bottom of the plates was sealed with backing tape UniFilter-96. Finally, 50 μl/well scintillation counter cocktail (Microscint20, Packard) was added and the radioactivity was counted in the Packard TopCount NXT scintillation counter. IC50 values (the half maximal inhibitory concentration of the agonist) were calculated by nonlinear regression analysis of sigmoidal dose-response curves.
The peptide was (partially) dissolved by shaking the filter unit horizontally at approx. 400 rpm for 2 hours at room temperature. The sample was filtered to remove any insoluble particles.

[5] = molecular target: T4, human NPY2 receptor (hY2R) (Homo sapiens, UniProt P49146); assay: HTRF cAMP Gi assay, hY2R
T4 sequence (P49146 1-381): T1 sequence (P49146 1-381)
Text: The Homogenous Time Resolved fluorescence (HTRF) technology optimized for Gi coupled receptors has thoroughly been described in Cisbio cAMP Gi kit manual. Briefly, the production of intracellular cAMP will generate a competition between unlabeled cAMP and exogenously added d2-cAMP for anti-cAMP antibodies conjugated to cryptate. CHO-K1 cells stably expressing the human NPY1, NPY2, NPY4 and NPY5 receptors were used with the cells brought to life from a frozen stock immediately before assay performance. 2000 cells per well were applied for all four NPY receptor subtype assays. A 384-well format was used applying a total volume of 20 μl using 5 μl cells, 2.5 μl peptide agonist, 2.5 μl forskolin and 5 μl of each of the fluorophores. […] Concentration-response evaluation of compounds was performed with 11 concentrations of agonist peptides (covering 3 decades). EC50 values were calculated by nonlinear regression using sigmoid concentration-response with variable slope.

[6] = molecular target: T5, human NPY5 receptor (hY5R) (Homo sapiens, UniProt Q15761); assay: HTRF cAMP Gi assay, hY5R
T5 sequence (Q15761 1-445): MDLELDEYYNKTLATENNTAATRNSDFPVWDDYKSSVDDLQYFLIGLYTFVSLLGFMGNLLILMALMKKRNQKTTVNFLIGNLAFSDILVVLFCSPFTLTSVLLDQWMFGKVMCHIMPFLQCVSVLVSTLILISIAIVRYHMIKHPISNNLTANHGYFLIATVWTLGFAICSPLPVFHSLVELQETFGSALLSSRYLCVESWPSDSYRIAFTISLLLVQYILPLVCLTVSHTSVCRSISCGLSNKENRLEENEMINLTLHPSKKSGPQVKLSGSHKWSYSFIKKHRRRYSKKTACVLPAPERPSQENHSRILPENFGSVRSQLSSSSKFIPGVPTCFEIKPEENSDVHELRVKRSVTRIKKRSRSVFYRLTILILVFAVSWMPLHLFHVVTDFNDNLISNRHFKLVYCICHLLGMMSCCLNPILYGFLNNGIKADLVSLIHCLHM

[7] = Table 3, 125I-PYY(1-36) competition, read-out: Ki
[8] = apparent Ki of filtrate after incubation at pH8.1-8.2, assumed 10 mg/ml, read-out: RLB 8 (pH8.1-8.2)
[9] = apparent Ki of filtrate after incubation at pH7.1-7.2, assumed 10 mg/ml, read-out: RLB 7 (pH7.1-7.2)

## CC(C)CC(=O)N[C@@H](C)C(=O)N1CCC[C@H]1C(=O)N[C@@H](CCC(=O)O)C(=O)N[C@@H](CCCCNC(=O)CCCCCNC(=O)CC[C@H](NC(=O)CCCCCCCCCCCCCCCCC(=O)O)C(=O)O)C(=O)N1CCC[C@H]1C(=O)N[C@@H](CCC(=O)O)C(=O)N[C@@H](C)C(=O)N[C@@H](CC(=O)O)C(=O)N[C@@H](C)C(=O)N[C@@H](CO)C(=O)N1CCC[C@H]1C(=O)N[C@@H](CCC(=O)O)C(=O)N[C@@H](CCC(=O)O)C(=O)N[C@@H](CC(C)C)C(=O)N[C@@H](CCC(N)=O)C(=O)N[C@@H](CCCNC(=N)N)C(=O)N[C@@H](Cc1ccc(O)cc1)C(=O)N[C@@H](Cc1ccc(O)cc1)C(=O)N[C@H](C(=O)N[C@@H](C)C(=O)N[C@@H](CC(C)C)C(=O)N[C@@H](CCCNC(=N)N)C(=O)N[C@@H](Cc1c[nH]cn1)C(=O)N[C@@H](Cc1ccc(O)cc1)C(=O)N[C@@H](Cc1ccc(O)cc1)C(=O)N[C@@H](CC(N)=O)C(=O)N[C@@H](Cc1c[nH]c2ccccc12)C(=O)N[C@@H](CC(C)C)C(=O)N[C@H](C(=O)N[C@@H](CCCNC(=N)N)C(=O)N[C@@H](CCC(N)=O)C(=O)N[C@@H](CCCNC(=N)N)C(=O)N[C@@H](Cc1ccc(O)cc1)C(N)=O)[C@@H](C)O)C(C)C [Compound 163, N{alpha-4}-(3-methylbutanoyl)-N{epsilon-7}-(6-[(4S)-4-carboxy-4-(17-carboxyheptadecanamido)butanamido]hexanoyl)-[4A,7K,9E,10A,18Q,22V,23A,28Y,30W,31L]-hPYY(4-36)]
[1]; [7]
  Ki: 0.67 nM
[2]
  EC50: > 5000 nM
[3]
  EC50: > 5000 nM
Solubility determination
  Sol6: 8.9 mg/mL
  Sol7: 9.2 mg/mL
[4]; [8]
  Ki: 4.9 nM
[5]
  EC50: 0.13 nM
[6]
  EC50: > 5000 nM

## CC[C@H](C)[C@H](NC(=O)[C@H](Cc1ccc(O)cc1)NC(=O)[C@H](Cc1ccc(O)cc1)NC(=O)[C@H](CCCNC(=N)N)NC(=O)[C@H](CCC(N)=O)NC(=O)[C@@H](NC(=O)[C@H](CCC(=O)O)NC(=O)[C@H](CCC(=O)O)NC(=O)[C@@H]1CCCN1C(=O)[C@H](CO)NC(=O)[C@H](C)NC(=O)[C@H](CC(=O)O)NC(=O)[C@H](C)NC(=O)[C@H](CCC(=O)O)NC(=O)[C@@H]1CCCN1C(=O)[C@H](CCCCNC(=O)CCCCCNC(=O)CC[C@H](NC(=O)CCCCCCCCCCCCCCCCC(=O)O)C(=O)O)NC(=O)[C@H](CCC(=O)O)NC(=O)[C@@H]1CCCN1C(=O)[C@H](C)NC(=O)CC(C)C)[C@@H](C)CC)C(=O)N[C@@H](C)C(=O)N[C@@H](CC(C)C)C(=O)N[C@@H](CCCNC(=N)N)C(=O)N[C@@H](Cc1c[nH]cn1)C(=O)N[C@@H](Cc1ccc(O)cc1)C(=O)N[C@@H](Cc1ccc(O)cc1)C(=O)N[C@@H](CC(N)=O)C(=O)N[C@@H](Cc1c[nH]c2ccccc12)C(=O)N[C@@H](CC(C)C)C(=O)N[C@H](C(=O)N[C@@H](CCCNC(=N)N)C(=O)N[C@@H](CCC(N)=O)C(=O)N[C@@H](CCCNC(=N)N)C(=O)N[C@@H](Cc1ccc(O)cc1)C(N)=O)[C@@H](C)O [Compound 40, N{alpha-4}-(3-methylbutanoyl)-N{epsilon-7}-(6-[(4S)-4-carboxy-4-(17-carboxyheptadecanamido)butanamido]hexanoyl)[4A,7K,9E,10A,17I,18Q,22I,23A,28Y,30W,31L]-hPYY(4-36)]
[2]
  EC50: > 5000 nM
[3]
  EC50: > 5000 nM
Solubility determination
  Sol6: 8.5 mg/mL
  Sol7: 8.2 mg/mL
[4]; [9]
  Ki: 7.3 nM
[4]; [8]
  Ki: 3.8 nM
[6]
  EC50: > 5000 nM

## CC[C@H](C)[C@H](NC(=O)[C@H](CCC(=O)O)NC(=O)[C@H](CCC(=O)O)NC(=O)[C@@H]1CCCN1C(=O)[C@@H](NC(=O)[C@H](C)NC(=O)[C@H](CC(=O)O)NC(=O)[C@H](CCC(=O)O)NC(=O)[C@H](CCC(=O)O)NC(=O)[C@@H]1CCCN1C(=O)[C@H](CCCCNC(=O)CCCCCNC(=O)CC[C@H](NC(=O)CCCCCCCCCCCCCCCCC(=O)O)C(=O)O)NC(=O)[C@H](CCC(=O)O)NC(=O)[C@@H]1CCCN1C(=O)[C@H](C)NC(=O)CC(C)C)[C@@H](C)O)C(=O)N[C@@H](CCC(N)=O)C(=O)N[C@@H](CCCNC(=N)N)C(=O)N[C@@H](Cc1ccc(O)cc1)C(=O)N[C@@H](Cc1ccc(O)cc1)C(=O)N[C@H](C(=O)N[C@@H](CO)C(=O)N[C@@H](CC(C)C)C(=O)N[C@@H](CCCNC(=N)N)C(=O)N[C@@H](Cc1c[nH]cn1)C(=O)N[C@@H](Cc1ccc(O)cc1)C(=O)N[C@@H](Cc1ccc(O)cc1)C(=O)N[C@@H](CC(N)=O)C(=O)N[C@@H](Cc1c[nH]c2ccccc12)C(=O)N[C@@H](CC(C)C)C(=O)N[C@H](C(=O)N[C@@H](CCCNC(=N)N)C(=O)N[C@@H](CCC(N)=O)C(=O)N[C@@H](CCCNC(=N)N)C(=O)N[C@@H](Cc1ccc(O)cc1)C(N)=O)[C@@H](C)O)C(C)C [Compound 176, N{alpha-4}-(3-methylbutanoyl)-N{epsilon-7}-(6-[(4S)-4-carboxy-4-(17-carboxyheptadecanamido)butanamido]hexanoyl)-[4A,7K,9E,13T,17I,18Q,22V,28Y,30W,31L]-hPYY(4-36)]
[1]; [7]
  Ki: 1.48 nM
[1]; Table 8, DMSO stock, read-out: hY2R RLB Ki (nM) DMSO
  Ki: 8.7 nM
[2]
  EC50: > 5000 nM
[3]
  EC50: > 5000 nM
Solubility determination
  Sol6: 9.4 mg/mL
  Sol7: 9.3 mg/mL
[4]; apparent Ki of filtrate after incubation at pH6.1-6.2, assumed 10 mg/ml, read-out: RLB 6 (pH6.1-6.2)
  Ki: 3.9 nM
[4]; [9]
  Ki: 4 nM
[4]; [8]
  Ki: 5.7 nM
[6]
  EC50: > 5000 nM
